Results as given in patent publication US5075289A, “9-R-azacyclic erythromycin antibiotics” (priority 1988, dated 1991).

Assays:
Type in all cases: cell-based
[1] = tested on: Staphylococcus aureus 45 RAR 2; assay: microbe, parasite or virus in culture; conditions: 45RAR2
In short: (§1)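 In agar dilution on Brain Heart Infusion agar, twelve successive compound dilutions were inoculated at 1:100 (1:10 for slow growers such as Streptococcus) by replicator and incubated 20–24 h at 35–37 °C. MIC is the lowest concentration giving no growth, slight haze or sparse colonies; erythromycin A was the class control.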

[2] = tested on: Haemophilus influenzae 747C; assay: In vitro antibacterial activity, agar dilution MIC; conditions: H. influenzae 747C
In short: as §1

[3] = tested on: Streptococcus bovis A5169; assay: In vitro antibacterial activity, agar dilution MIC; conditions: S. bovis A5169; Brain Heart Infusion agar, 20-24 hours; read-out: MIC
In short: as §1

[4] = tested on: Enterococcus faecium ATCC 8043; assay: In vitro antibacterial activity, agar dilution MIC; conditions: ATCC8043
In short: as §1

[5] = tested on: Haemophilus influenzae ATCC 19418; assay: In vitro antibacterial activity, agar dilution MIC; conditions: ATCC19418, H. influenzae ATCC 19418
In short: as §1

[6] = tested on: Haemophilus influenzae 751; assay: In vitro antibacterial activity, agar dilution MIC; conditions: H. influenzae 751
In short: as §1

[7] = tested on: Staphylococcus aureus ATCC 6538P; assay: In vitro antibacterial activity, agar dilution MIC; conditions: ATCC6538P
In short: as §1

[8] = tested on: Haemophilus influenzae DILL AMP R; assay: In vitro antibacterial activity, agar dilution MIC; conditions: H. influenzae DILL AMP R
In short: as §1

[9] = tested on: Micrococcus luteus ATCC 9341; assay: In vitro antibacterial activity, agar dilution MIC; conditions: ATCC9341, M. luteus ATCC 9341, Brain Heart Infusion agar, 20-24 hours, read-out: MIC
In short: as §1

Escherichia coli H560 = assay: In vitro antibacterial activity, agar dilution MIC; conditions: E. coli H560, Brain Heart Infusion agar, 20-24 hours, read-out: MIC
In short: as §1

[10] = tested on: Haemophilus influenzae 1435; assay: In vitro antibacterial activity, agar dilution MIC; conditions: H. influenzae 1435
In short: as §1

[11] = tested on: Haemophilus influenzae 667A; assay: In vitro antibacterial activity, agar dilution MIC; conditions: H. influenzae 667A
In short: as §1

[12] = tested on: Haemophilus influenzae ATCC 9795; assay: In vitro antibacterial activity, agar dilution MIC; conditions: ATCC9795, H. influenzae ATCC 9795
In short: as §1

[13] = tested on: Haemophilus influenzae SPK AMP R; assay: In vitro antibacterial activity, agar dilution MIC; conditions: H. influenzae SPK AMP R
In short: as §1

Staphylococcus aureus 45 = assay: In vitro antibacterial activity, agar dilution MIC; conditions: S. aureus 45, Brain Heart Infusion agar, 20-24 hours, read-out: MIC
In short: as §1

[14] = tested on: Haemophilus influenzae ATCC 10211; assay: In vitro antibacterial activity, agar dilution MIC; conditions: ATCC10211, H. influenzae ATCC 10211
In short: as §1

[15] = tested on: Streptococcus agalactiae CMX 508; assay: In vitro antibacterial activity, agar dilution MIC; conditions: CMX508, S. agalactiae CMX 508, Brain Heart Infusion agar, 20-24 hours, read-out: MIC
In short: as §1

Escherichia coli DC-2 = assay: In vitro antibacterial activity, agar dilution MIC; conditions: DC2
In short: as §1

[16] = tested on: Staphylococcus aureus A5177; assay: In vitro antibacterial activity, agar dilution MIC; conditions: S. aureus A5177, Brain Heart Infusion agar, 20-24 hours, read-out: MIC
In short: as §1

[17] = tested on: Staphylococcus epidermidis 3519; assay: In vitro antibacterial activity, agar dilution MIC; conditions: S. epidermidis 3519, Brain Heart Infusion agar, 20-24 hours, read-out: MIC
In short: as §1

[18] = tested on: Haemophilus influenzae 588A; assay: In vitro antibacterial activity, agar dilution MIC; conditions: H. influenzae 588A
In short: as §1

[19] = tested on: Micrococcus luteus ATCC 4698; assay: In vitro antibacterial activity, agar dilution MIC; conditions: ATCC4698, read-out: MIC
In short: as §1

Escherichia coli SS = assay: In vitro antibacterial activity, agar dilution MIC; conditions: read-out: MIC
In short: as §1

[20] = tested on: Streptococcus pyogenes 2548 INDUC; assay: In vitro antibacterial activity, agar dilution MIC; conditions: S. pyogenes 2548 INDUC, Brain Heart Infusion agar, 20-24 hours, read-out: MIC
In short: as §1

[21] = tested on: Streptococcus pyogenes 930 CONST; assay: In vitro antibacterial activity, agar dilution MIC; conditions: 930CONST
In short: as §1

[22] = tested on: Haemophilus influenzae 632A; assay: In vitro antibacterial activity, agar dilution MIC; conditions: H. influenzae 632A
In short: as §1

[23] = tested on: Staphylococcus aureus 642A; assay: In vitro antibacterial activity, agar dilution MIC; conditions: S. aureus 642A, Brain Heart Infusion agar, 20-24 hours, read-out: MIC
In short: as §1

[24] = tested on: Haemophilus influenzae SOL AMP R; assay: In vitro antibacterial activity, agar dilution MIC; conditions: H. influenzae SOL AMP R
In short: as §1

[25] = tested on: Haemophilus influenzae 519A; assay: In vitro antibacterial activity, agar dilution MIC; conditions: H. influenzae 519A
In short: as §1

[26] = tested on: Haemophilus influenzae 504; assay: In vitro antibacterial activity, agar dilution MIC; conditions: H. influenzae 504
In short: as §1

[27] = tested on: Staphylococcus aureus NCTC 10649; assay: In vitro antibacterial activity, agar dilution MIC; conditions: NCTC10649, S. aureus NCTC 10649, Brain Heart Infusion agar, 20-24 hours, read-out: MIC
In short: as §1

[28] = tested on: Haemophilus influenzae 566A; assay: In vitro antibacterial activity, agar dilution MIC; conditions: H. influenzae 566A
In short: as §1

[29] = tested on: Haemophilus influenzae 1177; assay: In vitro antibacterial activity, agar dilution MIC; conditions: H. influenzae 1177
In short: as §1

[30] = tested on: Staphylococcus aureus CMX 553; assay: In vitro antibacterial activity, agar dilution MIC; conditions: CMX553, S. aureus CMX 553, Brain Heart Infusion agar, 20-24 hours, read-out: MIC
In short: as §1

[31] = tested on: Streptococcus pyogenes EES61; assay: In vitro antibacterial activity, agar dilution MIC; conditions: S. pyogenes EES61, Brain Heart Infusion agar, 20-24 hours, read-out: MIC
In short: as §1

Escherichia coli Juhl = assay: In vitro antibacterial activity, agar dilution MIC
In short: as §1

[32] = tested on: Haemophilus influenzae 503B; assay: In vitro antibacterial activity, agar dilution MIC; conditions: H. influenzae 503B
In short: as §1

Measured: MIC

CC[C@H]1OC(=O)[C@H](C)[C@@H](O[C@H]2C[C@@](C)(OC)[C@@H](O)[C@H](C)O2)[C@H](C)[C@@H](O[C@@H]2O[C@H](C)C[C@H](N(C)C)[C@H]2O)[C@](C)(O)C[C@@H](C)[C@@H](N2CCC(C)(C)CC2)[C@H](C)[C@@H](O)[C@]1(C)O [Example 7]
3.1 µg/mL: Escherichia coli H560 | [16]
0.39 µg/mL: [1] | [7] | [17] | [23] | [27] | [30]
> 100 µg/mL: [21]
0.2 µg/mL: Staphylococcus aureus 45 | [19] | Escherichia coli SS
0.1 µg/mL: [4] | [31]
12.5 µg/mL: Escherichia coli DC-2 | Escherichia coli Juhl
6.2 µg/mL: [20]
0.5 µg/mL: [10] | [24] | [25]
2 µg/mL: [5] | [28]
0.25 µg/mL: [29]
≤ 0.05 µg/mL: [3] | [9] | [15]
1 µg/mL: all other assays above
